The test system of series [1] is Vero cells. Nature of the series: Cell toxicity in a cell growth inhibition assay (MTT uptake). It counts as cell-based. The conditions noted are these: concentration for 50% inhibition of cell viability at 96 hours. The procedure:
Cell toxicity is assessed in a cell growth inhibition assay. Subconfluent cultures of Vero cells grown on 96-well microtiter dishes are exposed to different dilutions of drug, and cell viability determined daily on replicate cultures using uptake of a tetrazolium dye (MTT). The concentration required for a 50% inhibition of cell vaibility at 96 hours is termed CCID₅₀.

A short description of series [2]: Determination of oral bioavailability by urinary recovery after oral administration. It counts as in vivo. The conditions noted are these: Long Evans Rats, gavage, 50 mg/kg; percent of dose excreted in urine over 48 hour collection as the parent compound 1-(β-D-arabinofuranosyl)-5-prop-1-ynyluracil. How it is done: Tests in rats were carried out on compounds of the invention to determine their bioavailability by measuring the urinary recovery after oral administration, as a percentage of the dose administered. High levels of the parent compound, 1-(β-D-arabinofuranosyl)-5-prop-1-ynyluracil, in the urine indicated good absorption from the gut.
Long Evans Rats were administered the compound of Example 1 or the parent compound by gavage at a dose of 50 mg/kg. The urine was collected for 24 and 48 hours post-dose, ultrafiltered, and analysed by reverse-phase high-pressure liquid chromatography. The oral bioavailability of the Example 1 compound and the parent compound was expressed as the percent of the dose excreted in the urine over the 48 hour period of collection, as 1-(β-D-arabinofuranosyl)-5-prop-1-ynyluracil, i.e. the parent compound.

In the case of “5-Prop-1-ynyl-1-(5-0-trimethylacetyl-β-D-arabinofuranosyl)uracil [Example 1]”, in series [1], the “CCID₅₀(µM) at 96 hr” value was 477 µM. Also, in series [2], the “Urinary Recovery (% of dose)” value is listed as 64.89 % of dose.
Regarding `CC#Cc1cn([C@@H]2O[C@H](CO)[C@@H](O)[C@@H]2O)c(=O)[nH]c1=O` [Parent Compound, 1-(β-D-arabinofuranosyl)-5-prop-1-ynyluracil, reference compound], the “Urinary Recovery (% of dose)” value in series [2] is recorded as 9.70 % of dose.

Values taken from EP0375164B1, “Antiviral compounds” (THE WELLCOME FOUNDATION LIMITED, priority 1988, dated 1990).
